Experimental data as given in ChEMBL document CHEMBL5046249, “Synthesis, biological evaluation and cellular localization study of fluorescent derivatives of Jiyuan Oridonin A” (Eur J Med Chem, 2022).

Key:
MGC-803 = assay: Antiproliferative activity against human MGC-803 cells assessed as inhibition of cell growth measured after 72 hrs by SRB assay; format: functional, cell-based; conditions: MGC-803, 72 h
SW1990 = assay: Antiproliferative activity against human SW1990 cells assessed as inhibition of cell growth measured after 72 hrs by SRB assay; format: functional, cell-based; conditions: SW1990, 72 h
PC-3 = assay: Antiproliferative activity against human PC-3 cells assessed as inhibition of cell growth measured after 72 hrs by SRB assay; format: functional, cell-based; conditions: PC-3, 72 h
TE-1 = assay: Antiproliferative activity against human TE-1 cells assessed as inhibition of cell growth measured after 72 hrs by SRB assay; format: functional, cell-based; conditions: TE-1, 72 h
HGC-27 = assay: Antiproliferative activity against human HGC-27 cells assessed as inhibition of cell growth measured after 72 hrs by SRB assay; format: functional, cell-based; conditions: HGC-27, 72 h
[1] = Drug uptake in human HGC-27 cells assessed as increase in fluorescence intensity of green signal at 8 uM measured after 1 hr by fluorescence microscopic analysis; format: ADME, cell-based; conditions: hgc-27, 1 h

| IC50 (MGC-803) [nM] | IC50 (SW1990) [nM] | IC50 (PC-3) [nM] | Drug uptake [1] | SMILES | IC50 (TE-1) [nM] | IC50 (HGC-27) [nM] |
| --- | --- | --- | --- | --- | --- | --- |
| > 32000 | > 32000 | > 32000 | Not Active | O=C1c2cccc3c(N4CCCCC4)ccc(c23)C(=O)N1CCOCCOCCOCCn1cc(CCCO)nn1 | > 32000 | > 32000 |
| 1230 | 1360 | 470 |  | C=C1C(=O)[C@]23[C@H](O)[C@H]1C[C@H](O)[C@H]2[C@]12CCCC(C)(C)[C@H]1C[C@H]3O[C@H]2OCCCc1cn(CCN2C(=O)c3cccc4c(N5CCCCC5)ccc(c34)C2=O)nn1 | 4800 | 2970 |
| > 32000 | > 32000 | > 32000 |  | [N-]=[N+]=NCCN1C(=O)c2cccc3c(N4CCCCC4)ccc(c23)C1=O | > 32000 | > 32000 |
| > 32000 | > 32000 | > 32000 |  | [N-]=[N+]=NCCOCCOCCN1C(=O)c2cccc3c(N4CCCCC4)ccc(c23)C1=O | > 32000 | > 32000 |
| 1510 | 2440 | 500 |  | C=C1C(=O)[C@]23[C@H](O)[C@H]1C[C@H](O)[C@H]2[C@]12CCCC(C)(C)[C@H]1C[C@H]3O[C@H]2OCCc1cn(CCCCCN2C(=O)c3cccc4c(N5CCCCC5)ccc(c34)C2=O)nn1 | 3050 | 2450 |
| 3310 | 2090 | 970 |  | C=C1C(=O)[C@]23[C@H](O)[C@H]1C[C@H](O)[C@H]2[C@]12CCCC(C)(C)[C@H]1C[C@H]3O[C@H]2OCCc1cn(CCOCCOCCN2C(=O)c3cccc4c(N5CCCCC5)ccc(c34)C2=O)nn1 | 1830 | 3540 |
| 2550 | 3340 | 4320 |  | C#CCCCCO[C@@H]1O[C@@H]2C[C@@H]3C(C)(C)CCC[C@]13[C@@H]1[C@@H](O)C[C@H]3C(=C)C(=O)[C@@]21[C@@H]3O | 5670 | 3000 |
| 2640 | 2150 | 1210 |  | C=C1C(=O)[C@]23[C@H](O)[C@H]1C[C@H](O)[C@H]2[C@]12CCCC(C)(C)[C@H]1C[C@H]3O[C@H]2OCCCCCc1cn(CCOCCOCCN2C(=O)c3cccc4c(N5CCCCC5)ccc(c34)C2=O)nn1 | 1860 | 1800 |
| 2930 | 2160 | 1150 |  | C=C1C(=O)[C@]23[C@H](O)[C@H]1C[C@H](O)[C@H]2[C@]12CCCC(C)(C)[C@H]1C[C@H]3O[C@H]2OCCCCc1cn(CCOCCOCCN2C(=O)c3cccc4c(N5CCCCC5)ccc(c34)C2=O)nn1 | 2260 | 1750 |

Continued, molecule first:

| SMILES | IC50 (MGC-803) [nM] | IC50 (SW1990) [nM] | IC50 (PC-3) [nM] | Drug uptake [1] | IC50 (TE-1) [nM] | IC50 (HGC-27) [nM] |
| --- | --- | --- | --- | --- | --- | --- |
| C=C1C(=O)[C@]23[C@H](O)[C@H]1C[C@H](O)[C@H]2[C@]12CCCC(C)(C)[C@H]1C[C@H]3O[C@H]2OCCCc1cn(CCOCCN2C(=O)c3cccc4c(N5CCCCC5)ccc(c34)C2=O)nn1 | 3830 | 2390 | 1410 |  | 2260 | 2160 |
| [N-]=[N+]=NCCOCCN1C(=O)c2cccc3c(N4CCCCC4)ccc(c23)C1=O | > 32000 | > 32000 | > 32000 |  | > 32000 | > 32000 |
| C=C1C(=O)[C@]23[C@H](O)[C@H]1C[C@H](O)[C@H]2[C@]12CCCC(C)(C)[C@H]1C[C@H]3O[C@H]2OCCCCc1cn(CCN2C(=O)c3cccc4c(N5CCCCC5)ccc(c34)C2=O)nn1 | 1210 | 1370 | 1440 |  | 2250 | 6230 |
| C#CCCO[C@@H]1O[C@@H]2C[C@@H]3C(C)(C)CCC[C@]13[C@@H]1[C@@H](O)C[C@H]3C(=C)C(=O)[C@@]21[C@@H]3O | 6360 | 4230 | 4250 |  | 7390 | 6480 |
| C#CCCCCCO[C@@H]1O[C@@H]2C[C@@H]3C(C)(C)CCC[C@]13[C@@H]1[C@@H](O)C[C@H]3C(=C)C(=O)[C@@]21[C@@H]3O | 3150 | 2910 | 2450 |  | 2440 | 2890 |
| C=C1C(=O)[C@]23[C@H](O)[C@H]1C[C@H](O)[C@H]2[C@]12CCCC(C)(C)[C@H]1C[C@H]3O[C@H]2OCCCc1cn(CCCN2C(=O)c3cccc4c(N5CCCCC5)ccc(c34)C2=O)nn1 | 1320 | 1130 | 1240 |  | 3540 | 4110 |
| C=C1C(=O)[C@]23[C@H](O)[C@H]1C[C@H](O)[C@H]2[C@]12CCCC(C)(C)[C@H]1C[C@H]3O[C@H]2OCCCCCCc1cn(CCOCCOCCN2C(=O)c3cccc4c(N5CCCCC5)ccc(c34)C2=O)nn1 | 3010 | 2820 | 970 |  | 1530 | 1880 |
| C=C1C(=O)[C@]23[C@H](O)[C@H]1C[C@H](O)[C@H]2[C@]12CCCC(C)(C)[C@H]1C[C@H]3O[C@H]2OCCCCCc1cn(CCCCCN2C(=O)c3cccc4c(N5CCCCC5)ccc(c34)C2=O)nn1 | 2440 | 2790 | 780 |  | 4670 | 1670 |
| C=C1C(=O)[C@]23[C@H](O)[C@H]1C[C@H](O)[C@H]2[C@]12CCCC(C)(C)[C@H]1C[C@H]3O[C@H]2OCCCCCCc1cn(CCCCCCN2C(=O)c3cccc4c(N5CCCCC5)ccc(c34)C2=O)nn1 | 3650 | 4880 | 3000 |  | 4050 | 5880 |
| C=C1C(=O)[C@]23[C@H](O)[C@H]1C[C@H](O)[C@H]2[C@]12CCCC(C)(C)[C@H]1C[C@H]3O[C@H]2O | 7190 | 7360 | 8430 | Not Active | 8820 | 4980 |
| C=C1C(=O)[C@]23[C@H](O)[C@H]1C[C@H](O)[C@H]2[C@]12CCCC(C)(C)[C@H]1C[C@H]3O[C@H]2OCCc1cn(CCCN2C(=O)c3cccc4c(N5CCCCC5)ccc(c34)C2=O)nn1 | 1970 | 970 | 800 |  | 3040 | 2290 |
| C=C1C(=O)[C@]23[C@H](O)[C@H]1C[C@H](O)[C@H]2[C@]12CCCC(C)(C)[C@H]1C[C@H]3O[C@H]2OCCCCCc1cn(CCOCCN2C(=O)c3cccc4c(N5CCCCC5)ccc(c34)C2=O)nn1 | 2780 | 3360 | 870 |  | 2370 | 1640 |
| C=C1C(=O)[C@]23[C@H](O)[C@H]1C[C@H](O)[C@H]2[C@]12CCCC(C)(C)[C@H]1C[C@H]3O[C@H]2OCCCCCc1cn(CCN2C(=O)c3cccc4c(N5CCCCC5)ccc(c34)C2=O)nn1 | 2720 | 4630 | 2470 |  | 5360 | 4410 |
| C=C1C(=O)[C@]23[C@H](O)[C@H]1C[C@H](O)[C@H]2[C@]12CCCC(C)(C)[C@H]1C[C@H]3O[C@H]2OCCc1cn(CCCCN2C(=O)c3cccc4c(N5CCCCC5)ccc(c34)C2=O)nn1 | 1510 | 1610 | 740 |  | 4890 | 1610 |
| C=C1C(=O)[C@]23[C@H](O)[C@H]1C[C@H](O)[C@H]2[C@]12CCCC(C)(C)[C@H]1C[C@H]3O[C@H]2OCCCc1cn(CCCCN2C(=O)c3cccc4c(N5CCCCC5)ccc(c34)C2=O)nn1 | 1270 | 870 | 1240 |  | 2080 | 2240 |
| C=C1C(=O)[C@]23[C@H](O)[C@H]1C[C@H](O)[C@H]2[C@]12CCCC(C)(C)[C@H]1C[C@H]3O[C@H]2OCCCc1cn(CCOCCOCCOCCN2C(=O)c3cccc4c(N5CCCCC5)ccc(c34)C2=O)nn1 | 2180 | 1640 | 810 |  | 1440 | 3110 |
